Experimental findings from ChEMBL document CHEMBL4020734, “Identification of a novel fluoropyrrole derivative as a potassium-competitive acid blocker with long duration of action” (Bioorg Med Chem, 2017) are described below.

Activity calls are given as the source filed them. The rule behind the calls is not given here. Some results are limits rather than exact numbers.

One data set deals with Canis familiaris. The data set can be described thus: Inhibition of histamine-induced acid secretion in dog heidenhain pouch at 0.8 mg/kg, po treated 1 day after and 1 to 48 hrs before histamine.2HCl treatment measured 30 mins post histamine challenge by titration method. The data set is classed as functional. To be noted: Canis lupus familiaris.
Data set [1] has as its system Rattus norvegicus. The data set can be described thus: Inhibition of histamine-induced acid secretion in po dosed rat gastric pretreated for 1 hr followed by histamine.2HCl treatment measured after 3 hrs by titration method. It counts as functional, organism-based.
Data set [2] relates to Rattus norvegicus. The data set is described as follows: Inhibition of histamine-induced acid secretion in Jcl:SD rat gastric assessed as pH of gastric perfusate at 0.7 mg/kg, iv pretreated for 3 mins followed by histamine.2HCl treatment measured after 5 hrs by glass electrode method (reference value: 2). The data set is classed as functional.
Data set [3] can be described thus: Effective permeability of the compound at 10 uM at pH 7.4 after 3 hrs by PAMPA. The data set is classed as physicochemical. To be noted: read-out: Peff. (In general: PAMPA measures passive passage across an artificial lipid membrane.)
Data set [4] in a line: Effective permeability of the compound at 10 uM at pH 5 after 3 hrs by PAMPA. It counts as physicochemical. To be noted: read-out: Peff.
For a further data set, the target named is hERG (KCNH2) (Homo sapiens, UniProt Q12809). The data set can be described thus: Inhibition of human ERG expressed in HEK cells at 10 uM at -75 mV holding potential by Whole-cell voltage clamp assay relative to control. It counts as cell-based. To be noted: HEK cells expressing human ERG.
Data set [5] can be described thus: Cytotoxicity against human HepG2 cells assessed as cellular ATP level at 100 uM after 1 day by ATPLite assay relative to control. It counts as cell-based. To be noted: read-out: Activity. A general note: ATP-based viability assays read luminescence as a measure of living cells.
Data set [6] deals with Rattus norvegicus. The data set can be described thus: Inhibition of histamine-induced acid secretion in Jcl:SD rat gastric at 1 mg/kg, iv pretreated for 3 mins followed by histamine.2HCl treatment measured after 3 hrs by titration method. It counts as functional.
The nature of data set [7]: Inhibition of H+/K+-ATPase in porcine stomach gastric mucosal microsomes assessed as reduction in inorganic phosphate production using ATP as substrate preincubated for 30 mins followed by ATP addition in presence of KCl by malachite green reagent based colorimetric assay. On the set-up: species or system Sus scrofa.
A short description of data set [8]: Dissociation constant, pKa of the compound. It counts as physicochemical.
The nature of data set [9]: Lipophilicity, log D of the compound at pH 7.4 by HPLC analysis. The data set is classed as physicochemical. As to conditions: buffer.
The nature of data set [10]: Inhibition of CYP450 (unknown origin). The data set is classed as ADME. As to conditions: human.
Data set [11] is described as follows: Stability of the compound under acidic condition. The data set is classed as physicochemical.
For data set [12], the system named is Rattus norvegicus. The data set can be described thus: Inhibition of histamine-induced acid secretion in Jcl:SD rat gastric assessed as pH of gastric perfusate at 1 mg/kg, iv pretreated for 3 mins followed by histamine.2HCl treatment measured after 150 to 180 mins by glass electrode method (reference value: 2). The data set is classed as functional.
For data set [13], the system named is Rattus norvegicus. The data set is described as follows: Inhibition of histamine-induced acid secretion in Jcl:SD rat gastric assessed as increase in pH of gastric perfusate at 1 mg/kg, iv pretreated for 3 mins followed by histamine.2HCl treatment measured after 2 hrs by glass electrode method. The data set is classed as functional, organism-based.
For data set [14], the system named is Rattus norvegicus. The data set can be described thus: Inhibition of histamine-induced acid secretion in Jcl:SD rat gastric assessed as pH of gastric perfusate at 1 mg/kg, iv pretreated for 3 mins followed by histamine.2HCl treatment measured up to 2 hrs by glass electrode method (reference value: 2). It counts as functional.
Data set [15] can be described thus: Metabolic stability of the compound.
Data set [16] is described as follows: Solubility of the compound. It counts as physicochemical.

Sequence of hERG (KCNH2) (Q12809 whole entry): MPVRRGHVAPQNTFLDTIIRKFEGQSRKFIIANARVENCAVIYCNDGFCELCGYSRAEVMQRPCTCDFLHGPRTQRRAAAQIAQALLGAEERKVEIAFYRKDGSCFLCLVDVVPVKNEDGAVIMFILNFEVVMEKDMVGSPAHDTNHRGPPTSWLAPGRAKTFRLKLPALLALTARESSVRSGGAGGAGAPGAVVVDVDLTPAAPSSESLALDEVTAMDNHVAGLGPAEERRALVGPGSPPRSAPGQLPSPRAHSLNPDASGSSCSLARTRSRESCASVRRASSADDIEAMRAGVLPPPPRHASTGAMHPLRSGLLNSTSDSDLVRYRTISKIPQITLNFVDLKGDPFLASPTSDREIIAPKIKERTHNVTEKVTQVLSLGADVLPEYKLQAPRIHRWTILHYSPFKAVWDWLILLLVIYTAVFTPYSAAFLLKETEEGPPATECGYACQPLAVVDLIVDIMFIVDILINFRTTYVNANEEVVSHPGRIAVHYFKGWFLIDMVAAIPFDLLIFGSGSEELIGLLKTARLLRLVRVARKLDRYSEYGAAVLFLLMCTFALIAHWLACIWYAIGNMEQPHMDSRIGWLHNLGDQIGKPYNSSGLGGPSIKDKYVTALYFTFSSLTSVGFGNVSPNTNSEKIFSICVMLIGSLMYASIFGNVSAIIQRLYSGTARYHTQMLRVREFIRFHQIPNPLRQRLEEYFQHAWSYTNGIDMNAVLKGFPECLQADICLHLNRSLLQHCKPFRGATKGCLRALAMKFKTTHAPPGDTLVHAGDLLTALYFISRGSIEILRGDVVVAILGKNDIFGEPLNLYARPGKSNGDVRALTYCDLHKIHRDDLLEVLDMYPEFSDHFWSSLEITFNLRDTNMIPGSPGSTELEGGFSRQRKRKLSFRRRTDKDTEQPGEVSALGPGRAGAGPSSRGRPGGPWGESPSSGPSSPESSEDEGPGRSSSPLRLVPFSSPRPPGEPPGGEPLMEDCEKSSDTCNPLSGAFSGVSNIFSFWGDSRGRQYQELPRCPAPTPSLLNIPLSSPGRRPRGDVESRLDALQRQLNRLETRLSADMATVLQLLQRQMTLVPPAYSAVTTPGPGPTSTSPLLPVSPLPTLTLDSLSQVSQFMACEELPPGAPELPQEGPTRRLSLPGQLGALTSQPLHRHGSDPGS

Consider `CNCc1cn(S(=O)(=O)c2cccnc2)c(-c2cccnc2F)c1F`, for which the inhibition in vivo (as a rule, the share of the control response that was lost under treatment) at 0.8 mg/kg with Canis familiaris turned out to be 100%. The inhibition (in general, the change of the read-out against control, counted positive when it falls) with Rattus norvegicus [1] was “Dose-dependent effect”. Also, the pH in the data set on Rattus norvegicus [2] came to 6. Further, the Papp at 3 h, 10 µM in data set [3] was determined as 25.6 ×10⁻⁶ cm/s; in data set [4] it was 4.7 ×10⁻⁶ cm/s. Also, the inhibition at 10 µM against hERG (KCNH2) came out at 39.8%. In addition, in [5], the viability at 24 h, 100 µM amounted to 100%. The inhibition in vivo at 1 mg/kg in the data set on Rattus norvegicus [6] is 98%. The IC50 (in general, the concentration that inhibits the measured activity by half) in [7] was 49 nM. Moreover, the pKa (commonly the negative logarithm of the acid dissociation constant) in [8] was 8.54. The logD (commonly lipophilicity at a set pH, counting ionised and neutral species) in data set [9] is 0.04. Also, the “inhibition (INH)” value in data set [10] was “Not Active”. The Stability entry in data set [11] was “Stable”.

Consider `CNCc1cc(-c2cccnc2F)n(S(=O)(=O)c2cccnc2)c1`, for which the pH in the data set with Rattus norvegicus [12] is recorded as 5. Further, the inhibition at 10 µM at hERG (KCNH2) stood at 4.4%. The viability at 24 h, 100 µM in data set [5] was 85.7%. For the same molecule, in the data set with Rattus norvegicus [6], the inhibition in vivo at 1 mg/kg was 96%. The IC50 in [7] worked out at 210 nM. For the same molecule, the logD in data set [9] is -0.85.

As to `CNCc1cc(-c2cccnc2C#N)n(S(=O)(=O)c2ccccc2)c1`, the inhibition result in the data set on Rattus norvegicus [13] is “inactive”. Also, the pH in the data set with Rattus norvegicus [14] is on record as >5. For the same molecule, on hERG (KCNH2), the inhibition at 10 µM worked out at 32.9%. In addition, the viability at 24 h, 100 µM in data set [5] amounted to 82.1%. Also, the inhibition in vivo at 1 mg/kg in the data set with Rattus norvegicus [6] was 99%. The IC50 in data set [7] is 120 nM. Besides, the logD in data set [9] was -0.32.

On to `CNCc1cc(-c2cccnc2)n(S(=O)(=O)c2ccccc2)c1`, for which the inhibition at 10 µM at hERG (KCNH2) came out at 43.3%. For the same molecule, the viability at 24 h, 100 µM in data set [5] was 95%. Moreover, the inhibition in vivo at 1 mg/kg in the data set with Rattus norvegicus [6] came out at 4%. Besides, the IC50 in [7] was 130 nM. Moreover, in [9], the logD is 0.08. For the same molecule, the Stability result in data set [15] is “Stable”. In addition, the solubility result in [16] was “Soluble”. Moreover, in data set [10], the “inhibition (INH)” value is listed as “Not Active”.
